Measured values from US8258099B2, “Pin1-modulating compounds and methods of use thereof” (Max-Planck-Gesellschaft zur Foerderung der Wissenschaften …, priority 2004, dated 2012).
Square brackets hold non-standard residues; d marks the D form. Peptide text beside a SMILES is read from it. d(pT) = C[C@H](OP(=O)(O)O)[C@@H](N)C(=O)O; 2Nal = N[C@@H](Cc1ccc2ccccc2c1)C(=O)O; Pip = O=C(O)[C@@H]1CCCCN1

Experiments:
hPar14 = hPar14 (Homo sapiens, UniProt Q9Y237); experiment: Protease coupled PPIase assay, hPar14; format: biochemical; conditions: up to 50 μM
Description: FIG. 6 depicts the influence of peptide 17 on the hPar14 PPIase activity. The apparent first order rate constant kobs determined for the cis to trans isomerization of the arginyl-prolyl peptide bond of the substrate Suc-Ala-Arg-Pro-Phe-NH-Np (SEQ ID NO: 3) was measured using the protease coupled PPIase assay. α-Chymotrypsin was used as isomer specific protease. As control, the nonphosphorylated derivative of peptide 17 was used.
PPIase activities were monitored on a Hewlett-Packard 8452A diode array spectrophotometer according to Fischer et al., 1984 and Zhang et al., 2002. The hPar14 PPIase activity was measured with Suc-Ala-Arg-Pro-Phe-NH-Np (SEQ ID NO: 3) (final concentration 75 μM) as substrate and α-chymotrypsin (final concentration 60 μM) as isomer specific protease. PPIase activity of hCyp 18 and FKBP12 were measured using Suc-Ala-Ala-Pro-Phe-NH-Np (SEQ ID NO: 7) as substrate (final concentration 16 μM) and α-chymotrypsin (final concentration 60 μM) as isomer specific protease. PPIase activity of hPin1 was measured with Ac-Ala-Ala-Ser(PO3H2)-Pro-Arg-NH-Np (SEQ ID NO: 4) (final concentration 10 μM) as substrate and trypsin (final concentration 60 μM) as isomer specific protease. Final concentrations of the PPIases were 1.7 μM for hPar14, 4 nM for hPin1, 7 nM for FKBP12 and 9.7 nM for hCyp18. […] Measurements were monitored at 390 nm. […]

hCyp18 = hCyp18 (Homo sapiens, UniProt P62937); experiment: Protease coupled PPIase assay, hCyp18; format: biochemical
Description: PPIase activities were monitored on a Hewlett-Packard 8452A diode array spectrophotometer according to Fischer et al., 1984 and Zhang et al., 2002. The hPar14 PPIase activity was measured with Suc-Ala-Arg-Pro-Phe-NH-Np (SEQ ID NO: 3) (final concentration 75 μM) as substrate and α-chymotrypsin (final concentration 60 μM) as isomer specific protease. PPIase activity of hCyp 18 and FKBP12 were measured using Suc-Ala-Ala-Pro-Phe-NH-Np (SEQ ID NO: 7) as substrate (final concentration 16 μM) and α-chymotrypsin (final concentration 60 μM) as isomer specific protease. PPIase activity of hPin1 was measured with Ac-Ala-Ala-Ser(PO3H2)-Pro-Arg-NH-Np (SEQ ID NO: 4) (final concentration 10 μM) as substrate and trypsin (final concentration 60 μM) as isomer specific protease. […] Measurements were monitored at 390 nm.
Data analysis was performed by single-exponential nonlinear regression using the SigmaPlot Scientific Graphing System Version 5.00 (Jandel Corp.). […] The rate constant k0 was determined in the absence of Pin1. The first order rate constants kenz was calculated from the equation kenz=kobs−k0. IC50 and Ki values were determined by fitting the first order rate constants kenz against the concentration of the inhibitory peptide by nonlinear regression according to Schutkowski et al., 1995 or a model for tight binding inhibitors (Morrison, 1969).

X. laevis embryos = experiment: Microinjection in X. laevis embryos, cell division; format: in vivo; conditions: for number of vital embryos: 5 hours
Description: FIG. 8 depicts the blocking of cell division by the injection of peptide 17 in X. laevis embryos. 50-300 pmol of peptide 17 or 300 pmol of its nonphosphorylated derivative (control) dissolved in 10 nl PBS buffer were microinjected in the animal half of X. laevis embryos at stage 2 of development. Embryos with large and/or apoptotic appearing cells surrounded by normally developing cells were counted after further 5 hours (stage 8-9) of development. […] Each value is the average of four independent experiments.
FIGS. 9A-F depicts phenotypic analysis of X. laevis embryos after injection of peptide 17. 300 pmol of peptide 17 or its nonphosphorylated derivative dissolved in 10 nl PBS buffer were injected in the animal half of X. laevis embryos at stage 2 of development. 1.5 hour at stage 6 (A), 2.5 hours at stage 7 (B) and 4-5 hours at stage 8-9 (C, D) after injection enlarged cells became visible. Cells that are blocked in cell division are marked with a white arrow. Controls of uninjected embryos of stage 8-9 and embryos that were injected with 300 pmol of the nonphosphorylated derivative of peptide 17 are shown in panels E and F. The site where the nonphosphorylated derivative of peptide 17 was injected is marked with a white arrow (F).
FIGS. 10A-D depict the rescue of peptide 17 caused cell division block in X. laevis embryos by hPin1 (A, B) and different hPin1 variants (C, D). FIG. 10A depicts the time course of V5-tagged hPin1 expression was analyzed by preparation of X. laevis embryo lysate 1, 2 and 4 hours after injection of 1, 2 or 3 ng of V5-tagged hPin1 mRNA. In every case, the injected volume was 10 nl. Lysates were prepared in lysis buffer containing phosphatase and protease inhibitors. Samples were separated by SDS PAGE followed by western blotting. Endogenous XlPin1 and V5-tagged hPin1 were detected using an anti hPin1 PPIase domain antiserum as primary antibody followed by incubation with a horseradish peroxidase-conjugated secondary antibody. Visualization was done using the SuperSignal® substrate. […] In every case, the whole volume of injection was 10 nl. The indicated amount of the mRNA was injected in the animal half of 30 embryos at stage 2 of development. Embryos with large and/or apoptotic appearing cells surrounded by normally developed cells were counted after additional 5 hours of development (stage 8-9). […] Each percentage of vital embryos shown in the figure is the average of four independent experiments. FIG. 10C indicates the expression of V5-tagged hPin1 variants was evaluated by preparation of embryo lysate after 4 hours of injection of the respective mRNA (2 ng) in X. laevis embryos. Lysates were prepared in lysis buffer containing phosphatase and protease inhibitors. Samples were separated using SDS PAGE followed by western blot analysis. Endogenous XlPin1 and injected V5-tagged hPin1 variants were detected using an anti hPin1 PPIase domain antiserum as primary antibody and a horseradish peroxidase-conjugated secondary antibody. Visualization was done by a chemiluminescent reaction using the SuperSignal® substrate (Pierce). FIG. 10D depicts 250 pmol of peptide 17 was coinjected with 2 ng mRNA of the indicated V5-tagged hPin1 variant (whole volume 10 nl) in the animal half of 30 X. laevis embryos at stage 2 of development. Results were analyzed as described for FIG. 10B. Each percentage of vital embryos shown in the figure is the average of four independent experiments.
Microinjection was done into the animal half of X. laevis embryos at stage 2 of development. In every case, the injection volume was 10 nl. Immunofluorescence studies of frozen X. laevis embryo sections were performed as previously described (Julius et al., 2000). Ten-micrometer cryosections of stage 8 embryos were labelled using a monoclonal anti hPin1 antibody (mouse) followed by incubation with Alexa Fluor 546™-conjugated anti mouse antibody of goat serum (Molecular Probes). […]

hPar14, sequence (Q9Y237 whole entry): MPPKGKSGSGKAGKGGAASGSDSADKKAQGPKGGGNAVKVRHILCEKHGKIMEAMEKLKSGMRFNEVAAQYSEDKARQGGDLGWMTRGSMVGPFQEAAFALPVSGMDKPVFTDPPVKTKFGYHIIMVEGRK
hCyp18, sequence (P62937 whole entry): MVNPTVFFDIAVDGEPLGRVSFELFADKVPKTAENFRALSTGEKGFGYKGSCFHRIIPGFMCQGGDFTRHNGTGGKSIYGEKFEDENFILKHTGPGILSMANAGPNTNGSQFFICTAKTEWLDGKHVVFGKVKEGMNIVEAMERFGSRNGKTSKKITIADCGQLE

Q: For `CC(=O)N[C@@H](Cc1ccccc1)C(=O)N[C@@H](C(=O)N1CCCC[C@H]1C(=O)N[C@@H](Cc1ccc2ccccc2c1)C(=O)N[C@@H](CCC(N)=O)C(N)=O)[C@H](C)OP(=O)(O)O` [Peptide 17, Ac-Phe-D-Thr(PO3H2)-Pip-Nal-Gln-NH2] (Ac-F[d(pT)][Pip][2Nal]Q-NH2), which “inhibition of hPar14 PPIase activity” value (hPar14) is on record?
A: No inhibition

Q: What about the “inhibition of Cyp18” value (hCyp18) of the same compound?
A: no inhibition

Q: And the “number of vital embryos” value (X. laevis embryos; 250 pmol peptide 17, coinjection of 2 ng of V5-tagged hPin1 mRNA)?
A: up to 73%

Q: And the “number of vital embryos” value (X. laevis embryos; 250 pmol peptide 17, without coinjection of mRNA)?
A: 18%

Q: What about the “normal embryos after microinjection” value (X. laevis embryos; 300 pmol, stage 2 embryos, examined 5 hours after injection) of the same compound?
A: very low number of normal embryos

Q: And the “effect on development of the embryos” value (X. laevis embryos; microinjection at stage 2)?
A: cell cycle blockage and embryonic death
